Where two headings read alike, the source gives them in different places.
Columns and labels:
[1] = system: E.G7 targets (lysis by CD8 T cells / CTLs); experiment: in vitro cytotoxicity of CTLs against OVA expressing E.G7 thymoma cells; type: cell-based, mouse; conditions: C57BL/6 CTLs; relative to Inh1; FIG. 12C
Text: FIG. 5A Illustrates that pharmacological inhibition of TCPTP and PTP1B results in enhanced cytotoxicity and effector differentiation. CD8 T cells from OT-1 mice were activated/expanded by αCD3/αCD28 antibodies and IL-2 in the presence of different concentrations of TCPTP/PTP1B inhibitor (Inh1) for 5 days. Specific cytotoxicity against OVA expressing E.G7 thymoma cells was measure.
FIG. 12C illustrates the specific cytotoxicity against OVA expressing E.G7 thymoma cells from 5-day C57BL/6 CTLs treated with Inh1 or Inh2 at the concentrations specified. (one of three experiments shown).
To understand the functional capabilities of the CD8 T cells with combined deficiency of TCPTP and PTP1B, the conditional mutant mice of Example 1 were bred with OT-1 transgenic mice. […] Effector CD8 T cells also contribute to the immune response by the secretion of cytokines as IFN-γ, consequently the presence of this cytokine in the supernatant of target cell stimulated CTLs by ELISA was measured. An increase of the secretion of IFN-γ was detected in TCPTP and PTP1B single deficient cells at low effector to target ratios which was more stepped in the […] cells (FIG. 3C). […]
As the differentiation state of CD8 T cells was altered in the various genotypes analyzed before, how treatment with Inh1 altered the expression of differentiation markers was determined by flow cytometric analysis (FIGS. 5D and 5E). […]

[2] = mice; cited from earlier work
[3] = humans; phase 1 clinical studies; cited from earlier work

N#CCc1ccc2cc(Br)c(C(F)(F)P(=O)(O)O)cc2c1 [Inh2]
concentration inducing similar biological activity to Inh1 [1]: 5 times lower
systemic tolerability [2]: tolerated systemically
systemic tolerability [3]: tolerated systemically

— patent US20260315505A1, “COMBINED INHIBITION OF TYROSINE PHOSPHATASES TCPTP AND PTP1B AND PD-1 BLOCKAGE IMMUNOTHERAPY IN THE TREATMENT OF CANCER” (Kanyr Pharma Inc., priority 2022, published 2026)
